Assay results: ChEMBL document CHEMBL4373720, “Discovery of Conformationally Restricted Human Glutaminyl Cyclase Inhibitors as Potent Anti-Alzheimer's Agents by Structure-Based Design” (J Med Chem, 2019)
Calls of active or inactive are those of the source. The calls are words filed in the database; no cut-off is given here.

Tests used:
[1] = Cytotoxicity against mouse HT22 cells assessed as cell viability at 10 uM measured after 18 hrs by MTT assay relative to control; format: cell-based, HT-22; conditions: read-out: Activity
[2] = species: Mus musculus; conditions: ICR, 25 mg/kg
[3] = molecular target: hERG (KCNH2) (Homo sapiens, UniProt Q12809); assay: Displacement of tracer red from human ERG at 10 uM by fluorescence polarization assay relative to control; conditions: probe tracer red
Sequence of hERG (KCNH2) (Q12809 whole entry): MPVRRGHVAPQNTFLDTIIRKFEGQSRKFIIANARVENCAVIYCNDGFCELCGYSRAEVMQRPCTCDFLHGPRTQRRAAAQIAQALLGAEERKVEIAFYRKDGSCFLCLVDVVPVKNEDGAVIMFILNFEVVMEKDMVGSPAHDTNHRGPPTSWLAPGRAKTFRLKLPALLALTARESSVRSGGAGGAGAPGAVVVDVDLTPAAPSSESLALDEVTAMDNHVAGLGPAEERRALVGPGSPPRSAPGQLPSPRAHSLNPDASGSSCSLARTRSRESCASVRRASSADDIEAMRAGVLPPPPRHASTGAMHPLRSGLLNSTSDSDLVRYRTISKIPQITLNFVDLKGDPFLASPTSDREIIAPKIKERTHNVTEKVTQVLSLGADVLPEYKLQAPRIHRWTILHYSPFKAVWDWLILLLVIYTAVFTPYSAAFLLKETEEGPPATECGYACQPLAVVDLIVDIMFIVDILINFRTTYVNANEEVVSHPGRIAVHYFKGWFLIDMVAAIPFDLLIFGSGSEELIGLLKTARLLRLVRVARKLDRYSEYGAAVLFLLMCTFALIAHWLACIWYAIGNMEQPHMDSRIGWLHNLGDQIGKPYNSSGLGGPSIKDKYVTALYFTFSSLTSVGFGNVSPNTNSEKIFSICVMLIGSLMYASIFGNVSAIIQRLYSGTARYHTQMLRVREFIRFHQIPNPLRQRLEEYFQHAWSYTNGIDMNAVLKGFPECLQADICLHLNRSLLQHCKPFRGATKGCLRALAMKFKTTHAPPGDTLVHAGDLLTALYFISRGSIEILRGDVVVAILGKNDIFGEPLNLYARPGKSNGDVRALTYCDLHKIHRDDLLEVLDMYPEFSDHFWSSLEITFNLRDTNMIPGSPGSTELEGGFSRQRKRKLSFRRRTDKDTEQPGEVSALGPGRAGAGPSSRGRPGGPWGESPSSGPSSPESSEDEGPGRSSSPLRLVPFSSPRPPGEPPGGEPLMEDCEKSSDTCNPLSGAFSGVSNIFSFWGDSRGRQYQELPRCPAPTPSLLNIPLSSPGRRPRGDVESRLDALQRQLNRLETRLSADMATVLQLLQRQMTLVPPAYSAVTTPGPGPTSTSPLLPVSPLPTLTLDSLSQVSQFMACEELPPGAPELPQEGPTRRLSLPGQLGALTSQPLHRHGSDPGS

[4] = species: Mus musculus; assay: animal or person; conditions: ICR, central, 24 h, read-out: INH
[5] = Stability in human liver microsomes assessed as parent compound remaining measured after 30 mins; format: ADME, Microsome; conditions: read-out: Stability
[6] = Stability in mouse liver microsomes assessed as parent compound remaining measured after 30 mins; format: ADME, Microsome; conditions: read-out: Stability
[7] = system: Mus musculus; assay: Neuroprotection in human amyloid beta (3 to 40 residues)-induced ICR mouse model of Alzheimer's disease assessed as inhibition of human amyloid beta N3pE-40 level in brain at 25 mg/kg, ip measured after 24 hrs by sandwich ELISA relative to control; format: functional

SMILES | viability at 18 h, 10 µM [1] | inhibition [2] | inhibition at 10 µM [3] | inhibition in vivo at 25 mg/kg [4] | remaining at 0.5 h [5] | remaining at 0.5 h [6] | inhibition in vivo at 25 mg/kg [7]
CCN(C(=S)NCCCn1cncc1C)c1ccc(OC)c(OC)c1 | 88.4% | inactive | – | – | – | – | –
COc1ccc(N(Cc2ccc(F)cc2)C(=S)NCCCn2cncc2C)cc1OC | 100% | inactive | 83.5% | – | – | – | –
COc1ccc(N(CC(C)C)C(=S)NCCCn2cncc2C)cc1OC | 100% | inactive | 39.9% | – | – | – | –
COc1ccc(N(C(=S)NCCCn2cncc2C)C2CCCCC2)cc1OC | 78.3% | – | 59.4% | 4.01% | – | – | –
COc1ccc(N(C(=S)NCCCn2cncc2C)C2CCC2)cc1OC | 86.7% | inactive | 11.5% | – | – | – | –
COc1ccc(N(Cc2ccccc2)C(=S)NCCCn2cncc2C)cc1OC | 80.4% | – | 71.5% | 15.3% | – | – | –
COc1ccc(N(Cc2ccc(Cl)cc2)C(=S)NCCCn2cncc2C)cc1OC | 100% | – | 86.8% | 0.73% | – | – | –
COc1ccc(N(CC(C)C)C(=O)NCCCn2cncc2C)cc1OC | 100% | inactive | 23.7% | – | – | – | –
COc1ccc(N(Cc2cccc(F)c2)C(=S)NCCCn2cncc2C)cc1OC | 91.7% | – | 77.6% | 6.66% | – | – | –
COc1ccc(N(C(=S)NCCCn2cncc2C)C2CCCC2)cc1OC | 81.7% | – | 31.8% | 1.17% | – | – | –
COc1ccc(N(CC2CCCC2)C(=S)NCCCn2cncc2C)cc1OC | 100% | – | 60% | 2.96% | – | – | –
COc1ccc(N(CCCCc2ccnc(N)c2)C(=O)NCCCn2cncc2C)cc1OC | 100% | – | 48% | 24.4% | 43.1% | 21.6% | 22.7%
COc1ccc(N(C(=S)NCCCn2cncc2C)C(C)C)cc1OC | 100% | – | 46.3% | 6% | – | – | –
COc1ccc(N(Cc2cccnc2)C(=O)NCCCn2cncc2C)cc1OC | 100% | – | 33.2% | 26% | 44% | 12.8% | 22.9%
COc1ccc(N(Cc2cccnc2)C(=S)NCCCn2cncc2C)cc1OC | 89.3% | – | 34.5% | 5.31% | – | – | –
COc1ccc(N(Cc2ccc(F)cc2)C(=O)NCCCn2cncc2C)cc1OC | 90.7% | inactive | 40.6% | – | – | – | –
COc1ccc(N(CCCCc2ccnc(NCCN)c2)C(=O)NCCCn2cncc2C)cc1OC | 82.2% | – | 40.8% | 13.7% | – | – | –
COc1ccc(N(Cc2cccc(Cl)c2)C(=S)NCCCn2cncc2C)cc1OC | 88.2% | inactive | 86% | – | – | – | –
COc1ccc(N(Cc2ccncc2)C(=S)NCCCn2cncc2C)cc1OC | 100% | – | 32.3% | 11.6% | – | – | –
COc1ccc(N(CC2CCCC2)C(=O)NCCCn2cncc2C)cc1OC | 100% | – | 29.6% | 2.96% | – | – | –
COc1ccc(N(C(=O)NCCCn2cncc2C)C2CCCCC2)cc1OC | 88.6% | inactive | 12.2% | – | – | – | –
